Two compounds from PMC10976477 (RSC Advances, 2024) can be followed below.

Like-named read-outs stand apart in the source and are kept apart here.

As usually defined, the IC50 is the midpoint of a concentration-inhibition curve.

Data set [1] is described as follows: ABTS radical cation scavenging assay. To be noted: read-out: IC50 (μM) ± SEM ABTS.
The next data set has as its target T1, human MAO-B (Homo sapiens, UniProt P27338).
T1 sequence (P27338 1-520): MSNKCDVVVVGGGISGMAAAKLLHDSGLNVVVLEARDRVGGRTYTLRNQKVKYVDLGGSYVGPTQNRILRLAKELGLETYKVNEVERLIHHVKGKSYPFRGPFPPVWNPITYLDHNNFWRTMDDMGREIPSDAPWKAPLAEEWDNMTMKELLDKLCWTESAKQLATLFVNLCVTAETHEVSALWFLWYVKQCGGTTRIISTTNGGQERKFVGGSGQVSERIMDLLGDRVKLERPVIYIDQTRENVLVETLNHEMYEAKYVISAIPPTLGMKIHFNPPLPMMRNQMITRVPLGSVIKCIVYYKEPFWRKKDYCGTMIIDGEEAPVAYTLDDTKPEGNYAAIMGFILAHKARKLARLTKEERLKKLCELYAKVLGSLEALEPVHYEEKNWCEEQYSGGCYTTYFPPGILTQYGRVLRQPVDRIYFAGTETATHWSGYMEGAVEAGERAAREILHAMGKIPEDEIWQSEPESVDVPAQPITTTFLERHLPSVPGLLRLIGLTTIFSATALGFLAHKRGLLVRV
The data set can be described thus: MAO-B inhibition assay. Format: biochemical. To be noted: for SI = IC50 of MAO-A/IC50 of MAO-B: selectivity index.

Data set [2] has as its target T2, eqBChE (Equus caballus, UniProt P81908). Description: Cholinesterase inhibition, Ellman's assay. To be noted: read-out: IC50 (μM) ± SEM eqBChE; mean ± SEM; n = 3.
The target of the next data set is T3, human MAO-A (Homo sapiens, UniProt P21397).
T3 sequence (P21397 1-527): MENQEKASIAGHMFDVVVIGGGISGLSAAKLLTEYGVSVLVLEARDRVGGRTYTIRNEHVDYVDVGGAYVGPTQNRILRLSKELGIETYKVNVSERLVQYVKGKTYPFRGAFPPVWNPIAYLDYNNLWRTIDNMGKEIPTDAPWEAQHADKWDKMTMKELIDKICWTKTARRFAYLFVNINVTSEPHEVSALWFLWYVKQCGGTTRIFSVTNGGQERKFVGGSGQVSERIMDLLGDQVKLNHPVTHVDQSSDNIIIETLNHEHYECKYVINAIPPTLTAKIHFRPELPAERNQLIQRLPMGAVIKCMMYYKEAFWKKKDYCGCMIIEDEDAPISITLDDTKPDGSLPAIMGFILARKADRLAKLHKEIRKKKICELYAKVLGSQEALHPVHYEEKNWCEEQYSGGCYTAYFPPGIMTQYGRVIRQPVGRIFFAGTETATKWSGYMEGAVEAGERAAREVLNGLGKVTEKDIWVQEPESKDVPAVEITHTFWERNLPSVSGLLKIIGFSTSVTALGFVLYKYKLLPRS
Description: MAO-A inhibition assay. Format: biochemical.

Data set [3] can be described thus: DPPH radical scavenging assay. The note with it: read-out: IC50 (μM) ± SEM DPPH.
In the next data set the target is eeAChE (Electrophorus electricus, UniProt O42275). Description: Cholinesterase inhibition, Ellman's assay. Format: biochemical, electric eel. To be noted: for SI = IC50 of BChE/IC50 of AChE: selectivity index. A general note: Ellman's reagent forms a yellow product with free thiols.
Chain of eeAChE (O42275 24-633): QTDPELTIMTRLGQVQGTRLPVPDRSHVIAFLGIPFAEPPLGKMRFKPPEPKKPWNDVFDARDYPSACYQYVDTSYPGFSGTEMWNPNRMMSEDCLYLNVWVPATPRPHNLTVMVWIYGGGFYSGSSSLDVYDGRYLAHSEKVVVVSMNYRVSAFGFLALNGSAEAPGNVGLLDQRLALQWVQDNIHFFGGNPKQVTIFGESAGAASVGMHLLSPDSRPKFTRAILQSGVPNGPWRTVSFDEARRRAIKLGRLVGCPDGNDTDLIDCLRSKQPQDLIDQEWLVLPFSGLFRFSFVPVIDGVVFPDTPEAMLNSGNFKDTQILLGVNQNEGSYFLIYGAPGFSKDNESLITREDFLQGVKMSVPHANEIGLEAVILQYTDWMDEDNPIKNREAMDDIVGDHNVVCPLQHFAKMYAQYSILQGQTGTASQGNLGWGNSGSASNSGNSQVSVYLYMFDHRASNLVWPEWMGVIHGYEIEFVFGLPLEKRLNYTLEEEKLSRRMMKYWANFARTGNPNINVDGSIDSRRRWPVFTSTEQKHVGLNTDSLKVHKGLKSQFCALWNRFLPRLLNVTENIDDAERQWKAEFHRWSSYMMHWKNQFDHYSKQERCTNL
The subject of another data set is CAT. The data set can be described thus: In vivo CAT activity in brain of mice. The note with it: high-test dose.
The next data set relates to HEK-293 cells. Description: Cell viability assay on normal human embryonic HEK-293 cells. Type of data set: cell-based. To be noted: 1, 10, 20, 40 and 100 μM, MTT.
The subject of a further data set is GSH-Px. Description: In vivo GSH-Px activity in brain of mice. To be noted: 5 mg kg^−1.
Another data set has as its system SOD. The data set can be described thus: In vivo SOD level in brain of mice. The note with it: 5 mg kg^−1.
Data set [4] has as its target T2, eqBChE. The data set can be described thus: biochemical.
A further data set has as its target Aβ1–42 peptide (Homo sapiens, UniProt P05067). The data set can be described thus: ThT fluorescence assay for self-mediated Aβ1–42 aggregation. Type of data set: biochemical.
In a further data set the target is T4, COX-2 (Homo sapiens, UniProt P35354).
T4 sequence (P35354 18-604): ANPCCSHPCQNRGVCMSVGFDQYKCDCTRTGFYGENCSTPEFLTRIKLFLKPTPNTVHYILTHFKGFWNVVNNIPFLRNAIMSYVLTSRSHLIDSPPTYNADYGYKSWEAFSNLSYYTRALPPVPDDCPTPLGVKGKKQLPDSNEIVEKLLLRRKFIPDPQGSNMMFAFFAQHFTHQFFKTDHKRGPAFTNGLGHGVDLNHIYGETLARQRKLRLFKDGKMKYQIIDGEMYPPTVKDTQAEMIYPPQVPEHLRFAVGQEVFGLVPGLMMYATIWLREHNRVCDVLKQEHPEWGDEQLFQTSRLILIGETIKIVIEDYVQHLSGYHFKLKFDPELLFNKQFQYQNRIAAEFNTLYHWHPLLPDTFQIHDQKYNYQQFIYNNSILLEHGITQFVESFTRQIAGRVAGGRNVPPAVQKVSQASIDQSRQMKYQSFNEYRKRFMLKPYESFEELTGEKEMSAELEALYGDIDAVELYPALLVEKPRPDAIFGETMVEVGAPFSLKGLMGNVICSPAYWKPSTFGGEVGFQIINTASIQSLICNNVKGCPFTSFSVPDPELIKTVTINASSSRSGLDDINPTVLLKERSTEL
The data set can be described thus: biochemical.

In another data set the test system is SH-SY5Y cells. The data set can be described thus: SH-SY5Y neuroblastoma cell toxicity. Format: cell-based, human. To be noted: 10–100 μM, 48 h incubation, MTT.
In another data set the test system is MDA. Description: In vivo MDA level in brain of mice. The note with it: 5 mg kg^−1.
Data set [5] can be described thus: Ferric ion reducing antioxidant power. To be noted: μM equivalent to the standard antioxidant ascorbic acid.
Data set [6] can be described thus: In vivo antioxidant potential in mice. The note with it: 5 mg kg^−1, SOD, CAT, GSH.

T2 sequence (P81908 whole entry): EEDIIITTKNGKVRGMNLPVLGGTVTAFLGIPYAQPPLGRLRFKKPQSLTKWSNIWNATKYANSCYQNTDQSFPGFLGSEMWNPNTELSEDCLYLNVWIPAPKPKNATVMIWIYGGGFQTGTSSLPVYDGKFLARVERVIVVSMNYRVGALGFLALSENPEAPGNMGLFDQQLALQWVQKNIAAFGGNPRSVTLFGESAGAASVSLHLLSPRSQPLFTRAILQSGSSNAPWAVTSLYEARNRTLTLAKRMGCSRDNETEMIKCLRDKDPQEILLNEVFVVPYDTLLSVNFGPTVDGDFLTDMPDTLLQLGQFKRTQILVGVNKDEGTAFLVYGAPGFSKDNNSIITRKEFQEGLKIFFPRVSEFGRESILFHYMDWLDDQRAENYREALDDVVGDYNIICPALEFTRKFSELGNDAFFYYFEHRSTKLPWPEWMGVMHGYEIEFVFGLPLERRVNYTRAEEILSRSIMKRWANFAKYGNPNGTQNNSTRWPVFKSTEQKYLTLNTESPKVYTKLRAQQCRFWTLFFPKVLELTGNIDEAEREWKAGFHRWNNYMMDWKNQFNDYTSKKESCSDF
Chain of Aβ1–42 peptide (P05067 672-713): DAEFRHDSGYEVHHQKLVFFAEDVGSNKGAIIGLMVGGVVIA

In the case of `COc1cc(/C=C/C(=O)Nc2nc3ccc(O)cc3s2)ccc1OCc1ccccc1` [Compound 22, (E)-3-(4-(Benzyloxy)-3-methoxyphenyl)-N-(6-hydroxybenzo[d]thi-azol-2-yl)acrylamide], the IC50 is 43.2 ± 1.34 µM in data set [1]; 0.348 ± 0.041 µM on human MAO-B (read-out: IC50 (μM) ± SEM MAO-B, mean ± SEM, n = 3); 37.4 ± 1.17 µM on eqBChE [2]; 19.4 ± 1.1 µM on human MAO-A (read-out: IC50 (μM) ± SEM MAO-A, mean ± SEM, n = 3); 16.33 ± 0.1 µM in [3]; 0.172 ± 0.1 µM at eeAChE (read-out: IC50 (μM) ± SEM eeAChE, mean ± SEM, n = 3). Moreover, the “SI = IC50 of MAO-A/IC50 of MAO-B” value on human MAO-B was found to be 55. Moreover, the “SI = IC50 of BChE/IC50 of AChE” value at eeAChE was 217.

As for `O=C(Nc1nc2ccc(O)cc2s1)c1cc(O)c(O)c(O)c1` [Compound 28, 3,4,5-Trihydroxy-N-(6-hydroxybenzo[d]thiazol-2-yl)benzamide], in the data set on CAT, the CAT activity is listed as 97 U mL^−1. The IC50 in data set [1] was determined as 2.06 ± 0.11 µM; against human MAO-B it was 0.219 ± 0.34 µM; on eqBChE [4], 9.25 ± 0.506 µM; against Aβ1–42 peptide it was 11.29 ± 0.08 µM; on COX-2, 10.4 ± 0.13 µM; on human MAO-A, 10.1 ± 0.239 µM. The IC50 is 1.77 ± 0.04 µM in [3] and 1.48 ± 0.1 µM at eeAChE. In addition, the “cytotoxic effect on viability of HEK-293 cells” value in the data set with HEK-293 cells is given as “not showed in cytotoxic effect”. Moreover, the “brain GSH-Px activity” value in the data set on GSH-Px is on record as “increases the antioxidant enzymatic activity of GSH-Px”. Further, in the data set with SOD, the “brain's SOD level” value amounted to 94.20 U mL^−1. The “SI = IC50 of MAO-A/IC50 of MAO-B” value on human MAO-B was 46. Further, on Aβ1–42 peptide (after a 24-hour equimolar administration, ThT fluorescence (Fig. 4)), the “inhibition of amyloid beta fibrils” value was “around 60%”. Moreover, the “neurotoxicity / cytotoxicity on SH-SY5Y cells” value in the data set with SH-SY5Y cells is “did not show any apparent neurotoxicity”. Also, the “SI = IC50 of BChE/IC50 of AChE” value on eeAChE is reported as 6. Also, the “MDA concentration in animal brains” value in the data set with MDA stood at 1.15 nmol/mL. For the same compound, the “FRAP value” in data set [5] was determined as 45.24 µM. In [6], the “in vivo antioxidant activity” value was “good to moderate in vivo antioxidant activity”.
